≈ marks a conversion by molar mass, not a printed value. Read-outs that look alike come from different tables or passages of the source.
Legend:
[1] = in vivo
Source text: (§1) All topical treatments were applied on one spot directly on the skin, after parting the hair, in the midline of the neck between the base of the skull and the shoulder blades. The intra-venous injection was given in the cephalic vein.
(§2) All blood samples were collected into lithium heparin tubes and processed into plasma by centrifugation.
(§3) This study was designed to evaluate the main pharmacokinetic parameters (Cmax, Tmax, Clast, Tlast, half-life, AUC, bioavailability) of the three compounds administered topically once in the novel formulation at the recommended minimum dose, and the non-interference of the three compounds between each other.
(§4) Group 2 was treated topically with esafoxolaner alone, formulated with identical solvents/excipients as those of the novel formulation, for non-interference evaluation of esafoxolaner. […] Group 4 was treated intravenously with esafoxolaner for bioavailability calculation of topical esafoxolaner in the novel formulation.
(§5) The cat plasma samples and internal standards were subjected to semi-automated solid phase extraction in a 96-well plate format followed by reversed-phase HPLC with gradient elution. The extracted analytes were quantified by an AB Sciex API 5000 mass spectrometer system using an electrospray interface. […] Chromatograms were integrated by the Analyst® 1.6.2 software and peak areas were determined.
(§6) The validated lower and upper limits of quantitation were 0.2 and 100 ng/mL, respectively. Sample concentrations were determined based on a fortified matrix calibration curve ranging from 0.2 to 100 ng/mL for each analyte with quality control samples, control plasma samples, and acceptance criteria according to EMA and FDA guidelines [4, 7]. Repeatability (precision), accuracy, assay specificity, dilution, recovery and matrix effect, carryover, stability in plasma and all solutions was established.
(§7) Pharmacokinetic (PK) parameters were calculated from individual plasma concentrations using the non-compartmental analysis function of WinNonlin® software (Phoenix 64 Build, version 6.3). The non-compartmental approach was consistent with the extravascular (topical) or IV bolus route of administration.
(§8) The peak drug plasma concentration Cmax and the time from dosing to the maximum concentration values Tmax were obtained directly from plasma concentration versus time data for each cat and then averaged for each topical treatment group. The terminal elimination phase was determined using at least the final three observed concentrations and not including Cmax. The first order rate constant, λz, associated with the terminal log-linear portion of the curve was estimated via linear regression of the log plasma concentration versus time curve. The terminal plasma half-life using ln (2)/λz was calculated for each animal, and then averaged for each treatment group. The area under the concentration versus time curve (AUC) from the time of dosing to the time to the last quantifiable concentration (AUC0−Tlast) was calculated using the linear up, log down trapezoidal method, and extrapolated to infinity (AUC0−inf) using the formula AUC0−Tlast + Clast/λz.
(§9) The systemic clearance of esafoxolaner in plasma (Cls) defined as dose/AUC0−inf, and the volume of distribution at steady state (Vss), which is AUMC0−inf/AUC0−inf × Cls, was calculated from WinNonlin® for the IV esafoxolaner group only. Due to the long terminal plasma half-life of esafoxolaner, each cat was not used as its own control and bioavailability was calculated on the average.

[2] = first (pilot) study; topical esafoxolaner only, twice at a 28-day interval, 23× the maximum exposure dose; cats; cited from earlier work
[3] = test system: ticks (Ixodes scapularis); parameters: method as in internal Sponsor’s data; conditions: plasma level, ref internal Sponsor’s data; cited from earlier work
[4] = test system: C. felis; parameters: method as in internal Sponsor’s data; conditions: plasma level, ref internal Sponsor’s data; cited from earlier work
[5] = Study #2: dose proportionality/linearity after a single topical dose of NexGard Combo at 0.5x, 1x, 2x; format: in vivo, cats
Experimental: Blood samples were collected prior to treatment and over a period of 91 days after the treatment, as detailed in Table 1. […] Dose proportionality for the three active ingredients was assessed by calculating the linear relationship between AUC or Cmax and the dose using the simple linear regression model.

[6] = in vivo; conditions: topical or ocular, 10 mg/kg
Source text: as §1, §2, §3, §4, §5, §6, §7, §8, §9

[7] = parameters: method as in PMID 24703069; conditions: topical Broadline; cats; cited from earlier work
[8] = test system: ear mites; parameters: method as in PMID 29887026; conditions: off-label in cats, 2.5 mg/kg; cited from earlier work
[9] = Study #1: single-dose pharmacokinetics and non-interference in cats (plasma, LC-MS/MS); conditions: NexGard Combo single topical at minimum recommended dose
Source text: as §1, §2, §3, §4, §5, §6, §7, §8, §9

[10] = Study #2: multiple-dose kinetics, accumulation and time to steady state (five topical doses at 28-day intervals); format: in vivo; conditions: repeated topical NexGard Combo at minimum recommended dose at 4-week intervals; cats
Experimental: Group 4, the accumulation and time to steady state group, was treated five times at 28-day intervals, topically with NexGard® Combo at the minimum recommended dose. In this group, blood samples were collected prior to each treatment, during the 4 weeks following each treatment, and for 8 weeks after the last treatment, as detailed in Table 1.
Chromatograms were integrated by the Analyst® 1.6.2 software and peak areas were determined.
The validated lower and upper limits of quantitation were 0.2 and 100 ng/mL, respectively. Sample concentrations were determined based on a fortified matrix calibration curve ranging from 0.2 to 100 ng/mL for each analyte with quality control samples, control plasma samples, and acceptance criteria according to EMA and FDA guidelines.
Accumulation ratios were calculated using Cmax and AUC for the three active ingredients after the 1st and 5th dose following five topical doses of the novel formulation.

[11] = 0.5× group compared to 1× group
[12] = NexGard Combo single topical 0.5× (esafoxolaner 0.72, praziquantel 5, eprinomectin 0.25 mg/kg), cats, mean
[13] = NexGard Combo single topical 1× (esafoxolaner 1.44, praziquantel 10, eprinomectin 0.5 mg/kg), cats, mean
[14] = NexGard Combo single topical 2× (esafoxolaner 2.88, praziquantel 20, eprinomectin 1 mg/kg), cats, mean

O=C(CNC(=O)c1ccc(C2=NO[C@@](c3cc(Cl)cc(C(F)(F)F)c3)(C(F)(F)F)C2)c2ccccc12)NCC(F)(F)F [Esafoxolaner, esafoxolaner]
Vss (volume of distribution) [1]: 4.0 L/kg | absolute (topical) bioavailability [1]: 47.2% | time until which efficacious plasma levels (EC90) were maintained, from 24 h [1]: 6-8 weeks | AUC0−Tlast ([1]; iv, 1.44 mg/kg): 9586 ± 1985 ng·days/mL | AUC0−inf ([1]; iv, 1.44 mg/kg): 10,542 ± 2029 day × ng/mL | Cl (systemic clearance) ([1]; iv, 1.44 mg/kg): 5.87 ± 1.23 mL/h/kg | T1/2 (plasma half-life) ([1]; iv, 1.44 mg/kg): 504 ± 101 h | Vss (volume of distribution at steady-state) ([1]; iv, 1.44 mg/kg): 4.016 ± 1.19 L/kg | half-life, range of individuals ([1]; iv, 1.44 mg/kg): 355 to 631 h | AUC0−Tlast ([1]; topical or ocular, 1.44 mg/kg): 6368 ± 1665 ng·days/mL | AUC0−inf ([1]; topical or ocular, 1.44 mg/kg): 7181 ± 2250 ng·days/mL | Cmax ([1]; topical or ocular, 1.44 mg/kg): 218 ± 68 ng/mL | T1/2 (plasma half-life) ([1]; topical or ocular, 1.44 mg/kg): 499 ± 154 h | Tmax ([1]; topical or ocular, 1.44 mg/kg): 90 ± 74.4 h | individual plasma half-lives (range) ([1]; topical or ocular, 1.44 mg/kg): 19.4 to 27.8 days | adverse reactions [2]: no significant adverse reactions | EC90 [3]: 0.0431 µg/mL (≈ 0.0689 µM) | EC90 [4]: 0.0191 ± 0.0021 µg/mL (≈ 0.0305 µM) | dose proportionality of PK parameters ([5]; in vivo): dose-proportional | persistence of a quantifiable plasma concentration ([5]; in vivo): more than 13 weeks

O=C(C1CCCCC1)N1CC(=O)N2CCc3ccccc3C2C1 (stereo not drawn) [Praziquantel, praziquantel]
Cmax [6]: 107 ± 59 ng/mL | Tmax [6]: 7.01 h | half-life [6]: 103 h | time at which maximum concentrations were reached (range) ([1]; cat): 4 to 8 h | time of last quantifiable plasma concentrations (range) ([1]; cat): 7 to 42 days | bioavailability in the Broadline formulation [7]: 45% | Cmax ([5]; in vivo, topical or ocular, 5 mg/kg): 54.7 ± 28.8 ng/mL | Cmax ([5]; in vivo, topical or ocular, 10 mg/kg): 126 ± 87.2 ng/mL | Cmax ([5]; in vivo, topical or ocular, 20 mg/kg): 317 ± 209 ng/mL

O=C(CNC(=O)c1ccc(C2=NOC(c3cc(Cl)cc(C(F)(F)F)c3)(C(F)(F)F)C2)c2ccccc12)NCC(F)(F)F (stereo not drawn) [afoxolaner]
acaricidal efficacy against ear mites [8]: efficacious

eprinomectin
mean Tmax [9]: 35 h | time to concentrations below the limit of quantitation, on average ([9]; LLOQ 0.2 ng/mL): 28 days | dose by which steady state was reached [10]: fifth and five | bioavailability in the Broadline formulation [7]: 31% | AUC0−Tlast Ratio [5, 11]: 0.5 | Cmax Ratio [5, 11]: 0.4 | dose proportionality of PK parameters ([5]; 0.5× to 2× the minimum dose (esafoxolaner 0.72–2.88, praziquantel 5–20, eprinomectin 0.25–1.0 mg/kg), single topical NexGard Combo): dose-proportional | AUC0−Tlast Ratio ([5]; 2× group compared to 1× group): 2.4 | Cmax Ratio ([5]; 2× group compared to 1× group): 2.3 | AUC0−Tlast [5, 12]: 53.6 ± 19.9 ng·days/mL | Cmax [5, 12]: 9.44 ± 4.26 ng/mL | AUC0−Tlast [5, 13]: 97.8 ± 37.4 ng·days/mL | Cmax [5, 13]: 24.1 ± 20.8 ng/mL | AUC0−Tlast [5, 14]: 233 ± 133 ng·days/mL | Cmax [5, 14]: 54.3 ± 35.8 ng/mL

— article PMC8019567 (Parasite, 2021)
